We go through seven compounds from US8754242B2, “Herbicides” (Syngenta Crop Protection LLC, priority 2007, dated 2014).

Common to all, as to format: in vivo
Test [1] has as its system Alopecurus myosuroides (ALOMY). Description: Test Example 1 pre-emergence herbicidal activity. The settings on record: rate 250 g/ha, evaluated 20 days later; for pest or weed control at 250 g/ha: Alopecurus myosuroides, 480 h, read-out: Pre-emergence activity ALOMY (100=total damage to plant; 0=no damage to plant). Put shortly:
(§1)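 Pots sown in standard soil were sprayed 1 day (pre-emergence) or 10 days (post-emergence) after sowing with an aqueous spray from an acetone/Emulsogen EL/N-methylpyrrolidone-based formulation. Visual damage was scored 20 days (pre) or 15 days (post) later in the greenhouse, 0 = none to 100 = total.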

Test [2] has as its system Avena fatua (AVEFA). Description: Test Example 1 pre-emergence herbicidal activity. As to conditions: rate 250 g/ha, evaluated 20 days later; for pest or weed control at 250 g/ha: Avena fatua, 480 h, read-out: Pre-emergence activity AVEFA (100=total damage to plant; 0=no damage to plant). Put shortly:
as §1

In test [3] the test system is Digitaria sanguinalis (DIGSA). Description: Test Example 1 pre-emergence herbicidal activity. The settings on record: rate 250 g/ha, evaluated 20 days later; for pest or weed control at 250 g/ha: Digitaria sanguinalis, 480 h, read-out: Pre-emergence activity DIGSA (100=total damage to plant; 0=no damage to plant). Put shortly:
as §1

Test [4] concerns Echinochloa crus-galli (ECHCG). Description: Test Example 1 pre-emergence herbicidal activity. As to conditions: rate 250 g/ha, evaluated 20 days later; for pest or weed control at 250 g/ha: Echinochloa crus-galli, 480 h, read-out: Pre-emergence activity ECHCG (100=total damage to plant; 0=no damage to plant). Put shortly:
as §1

For test [5], the system named is Lolium perenne (LOLPE). The experiment in a line: Test Example 1 pre-emergence herbicidal activity. As to conditions: rate 250 g/ha, evaluated 20 days later; for pest or weed control at 250 g/ha: Lolium perenne, 480 h, read-out: Pre-emergence activity LOLPE (100=total damage to plant; 0=no damage to plant). In outline: as §1
Test [6] relates to Setaria faberi (SETFA). Description: Test Example 1 pre-emergence herbicidal activity. The settings on record: rate 250 g/ha, evaluated 20 days later; for pest or weed control at 250 g/ha: Setaria faberi, 480 h, read-out: Pre-emergence activity SETFA (100=total damage to plant; 0=no damage to plant). In outline: as §1
Test [7] concerns Alopecurus myosuroides (ALOMY). Description: Test Example 1 post-emergence herbicidal activity. As to conditions: rate 125 g/ha, evaluated 15 days later; for pest or weed control at 125 g/ha: 360 h, read-out: Post-emergence activity ALOMY (100=total damage to plant; 0=no damage to plant). In outline:
as §1

For test [8], the system named is Avena fatua (AVEFA). Description: Test Example 1 post-emergence herbicidal activity. As to conditions: rate 125 g/ha, evaluated 15 days later; for pest or weed control at 125 g/ha: 360 h, read-out: Post-emergence activity AVEFA (100=total damage to plant; 0=no damage to plant). In outline: as §1
Test [9] concerns Digitaria sanguinalis (DIGSA). Description: Test Example 1 post-emergence herbicidal activity. As to conditions: rate 125 g/ha, evaluated 15 days later; for pest or weed control at 125 g/ha: 360 h, read-out: Post-emergence activity DIGSA (100=total damage to plant; 0=no damage to plant). In outline:
as §1

The test system of test [10] is Echinochloa crus-galli (ECHCG). Description: Test Example 1 post-emergence herbicidal activity. As to conditions: rate 125 g/ha, evaluated 15 days later; for pest or weed control at 125 g/ha: 360 h, read-out: Post-emergence activity ECHCG (100=total damage to plant; 0=no damage to plant). Put shortly:
as §1

Test [11] relates to Lolium perenne (LOLPE). The experiment in a line: Test Example 1 post-emergence herbicidal activity. As to conditions: rate 125 g/ha, evaluated 15 days later; for pest or weed control at 125 g/ha: 360 h, read-out: Post-emergence activity LOLPE (100=total damage to plant; 0=no damage to plant). In outline:
as §1

In test [12] the test system is Setaria faberi (SETFA). Description: Test Example 1 post-emergence herbicidal activity. The settings on record: rate 125 g/ha, evaluated 15 days later; for pest or weed control at 125 g/ha: 360 h, read-out: Post-emergence activity SETFA (100=total damage to plant; 0=no damage to plant). In outline: as §1
In a further test the test system is winter barley 'Antoniya'. Description: Test Example 2 post-emergence crop injury, alone and with cloquintocet-mexyl. The settings on record: Adigor 0.5%, 2-3 leaf seedlings, assessed 14-21 days after application. The source says:
(§2) Test compounds were applied post-emergence at 60 g ai/ha, alone and in combination with cloquintocet-mexyl at 60 g ai/ha; the adjuvant Adigor (0.5%) was included for every treatment. The application volume was […]. Target plants were 2-3 leaf seedlings of winter wheat ‘Hereward’ and winter barley ‘Antoniya’ grown in a greenhouse under ambient conditions. Assessments were made at 14-21 days after application.

A further test deals with winter wheat 'Hereward'. Described as above. As to conditions: Adigor 0.5%, 2-3 leaf seedlings, assessed 14-21 days after application.
From the text: as §2

A further test deals with maize. The experiment in a line: Test Example 3 crop injury of T1 alone and with safeners. The settings on record: safener (if any) at 1:1, 2-3 leaf stage, assessed 14-21 days after application. From the text:
(§3) The test compound T1 was applied at 100 and 200 g ai/ha, alone and in combination with a range of safeners as 1:1 mixtures (for example at 100 g+100 g; 200 g+200 g) to the test plants—wheat and maize—at the 2-3 leaf stage. A 4-way safener mixture (cloquintocet-mexyl, benoxacor, fluxofenim and compound A*) was also applied with the test compound so that each safener was used a 1:1 ratio (for example at 100+100+100+100+100 g ai/ha). Assessments were made at 14-21 days after application.

A further test concerns wheat. The test is described as above. As to conditions: safener (if any) at 1:1, 2-3 leaf stage, assessed 14-21 days after application.
From the text: as §3

[13] abbreviates: compound 60 g/ha in combination with cloquintocet-mexyl 60 g/ha.
The mark [14] stands for this setting: compound 60 g/ha, cloquintocet-mexyl 0 g/ha.

In the case of `Cc1cc(C)c(C2=C(O)[C@H]3[C@@H](C2=O)[C@@H]2CC[C@H]3O2)c(C)c1` [Example T3], the pest or weed control at 250 g/ha stood at 90% in test [1]; 80% in the test with Avena fatua (AVEFA) [2]; 80% in [3]; 100% in test [4]; 100% in the test on Lolium perenne (LOLPE) [5]; 70% in the test on Setaria faberi (SETFA) [6]. In addition, the pest or weed control at 125 g/ha in test [7] turned out to be 60%; in the test on Avena fatua (AVEFA) [8], 30%; in test [9] it was 100%; in test [10], 100%; with Lolium perenne (LOLPE) [11], 60%; in the test with Setaria faberi (SETFA) [12], 90%. The “Crop Injury (%) Barley” value with winter barley 'Antoniya' (setting [13]) and with winter barley 'Antoniya' (setting [14]) was 5% in each case. Further, the “Crop Injury (%) Wheat” value stood at 0% with winter wheat 'Hereward' (setting [13]) and 28% in the test on winter wheat 'Hereward' (setting [14]).
As for `CCc1cc(C)cc(CC)c1C1=C(O)[C@H]2[C@@H](C1=O)[C@@H]1CC[C@H]2O1` [Example T1], the “Pre-emergence activity ALOMY (100=total damage to plant; 0=no damage to plant)” value in [1] is listed as 100. The “Pre-emergence activity AVEFA (100=total damage to plant; 0=no damage to plant)” value in the test on Avena fatua (AVEFA) [2] is 100. Further, the “Pre-emergence activity DIGSA (100=total damage to plant; 0=no damage to plant)” value in test [3] worked out at 100. In addition, the “Pre-emergence activity ECHCG (100=total damage to plant; 0=no damage to plant)” value in test [4] was 100. Moreover, in the test with Lolium perenne (LOLPE) [5], the “Pre-emergence activity LOLPE (100=total damage to plant; 0=no damage to plant)” value was found to be 100. In the test on Setaria faberi (SETFA) [6], the “Pre-emergence activity SETFA (100=total damage to plant; 0=no damage to plant)” value worked out at 100. Also, the “Post-emergence activity ALOMY (100=total damage to plant; 0=no damage to plant)” value in [7] is 90. Moreover, the “Post-emergence activity AVEFA (100=total damage to plant; 0=no damage to plant)” value in the test with Avena fatua (AVEFA) [8] turned out to be 90. Further, the “Post-emergence activity DIGSA (100=total damage to plant; 0=no damage to plant)” value in test [9] is given as 100. Besides, in test [10], the “Post-emergence activity ECHCG (100=total damage to plant; 0=no damage to plant)” value came to 100. For the same compound, the “Post-emergence activity LOLPE (100=total damage to plant; 0=no damage to plant)” value in the test with Lolium perenne (LOLPE) [11] was found to be 80. Besides, the “Post-emergence activity SETFA (100=total damage to plant; 0=no damage to plant)” value in the test with Setaria faberi (SETFA) [12] is listed as 100. Also, the entries for the “Crop Injury (%) Barley” value with winter barley 'Antoniya' (setting [13]) and in the test on winter barley 'Antoniya' (setting [14]) were 73% and 99%, respectively. In addition, the “Crop Injury (%) Wheat” value in the test with winter wheat 'Hereward' (setting [13]) was 18%; in the test on winter wheat 'Hereward' (setting [14]), 85%. Besides, in the test on maize (T1 at 100 g ai/ha), the “Maize Injury (%) 100 g/ha” value was determined as 90%. The “Maize Injury (%) 200 g/ha” value in the test on maize (T1 at 200 g ai/ha) worked out at 100%. In addition, in the test with wheat (T1 at 100 g ai/ha), the “Wheat Injury (%) 100 g/ha” value is given as 83%. Moreover, in the test with wheat (T1 at 200 g ai/ha), the “Wheat Injury (%) 200 g/ha” value stood at 92%.
With `CCc1cc(C)cc(CC)c1C1=C(O)[C@@H]2[C@@H]3O[C@@H](C[C@H]3c3cccc(C)c3)[C@@H]2C1=O` [Example T179], the pest or weed control at 250 g/ha in [1] amounted to 70%; in the test with Avena fatua (AVEFA) [2], 60%; in test [3], 60%; in [4] it was 70%; in the test with Lolium perenne (LOLPE) [5], 80%; with Setaria faberi (SETFA) [6] it was 10%. Also, the pest or weed control at 125 g/ha in [7] amounted to 80%; in the test on Avena fatua (AVEFA) [8], 80%; in [9], 50%; in test [10], 70%; with Lolium perenne (LOLPE) [11], 80%; with Setaria faberi (SETFA) [12], 10%.
Consider `Cc1cc(C)c(C2=C(O)[C@@H]3[C@@H]4O[C@@H](C[C@H]4c4ccccc4)[C@@H]3C2=O)c(C)c1` [Example T56], for which the pest or weed control at 250 g/ha worked out at 100% in [1]; 60% in the test on Avena fatua (AVEFA) [2]; 70% in [3]; 100% in test [4]; 100% in the test on Lolium perenne (LOLPE) [5]; 70% in the test with Setaria faberi (SETFA) [6]. In addition, the pest or weed control at 125 g/ha in test [7] was 100%; in the test with Avena fatua (AVEFA) [8], 50%; in test [9] it was 70%; in test [10], 100%; with Lolium perenne (LOLPE) [11], 80%; in the test on Setaria faberi (SETFA) [12], 60%.
`Cc1cc(C)c(C2=C(O)[C@@H]3[C@@H]4O[C@@H](C[C@H]4c4cccc(C(F)(F)F)c4)[C@@H]3C2=O)c(C)c1` [Example T85]: the pest or weed control at 250 g/ha in [1] turned out to be 40%; in the test on Avena fatua (AVEFA) [2] it was 60%; in test [3] it was 60%; in [4], 70%; with Lolium perenne (LOLPE) [5] it was 70%; in the test on Setaria faberi (SETFA) [6] it was 70%. Further, the pest or weed control at 125 g/ha in test [7] was 90%; in the test with Avena fatua (AVEFA) [8], 20%; in test [9], 20%; in test [10], 100%; in the test on Lolium perenne (LOLPE) [11] it was 70%; with Setaria faberi (SETFA) [12], 70%.
`CC[C@@H]1C[C@@H]2O[C@H]1[C@H]1C(O)=C(c3c(C)cc(C)cc3C)C(=O)[C@H]12` [Example T106]: the pest or weed control at 250 g/ha in test [1] worked out at 90%; in the test on Avena fatua (AVEFA) [2] it was 90%; in test [3], 100%; in [4], 100%; in the test on Lolium perenne (LOLPE) [5], 100%; in the test with Setaria faberi (SETFA) [6], 100%. Moreover, the pest or weed control at 125 g/ha was determined as 90% in test [7]; 80% in the test on Avena fatua (AVEFA) [8]; 80% in test [9]; 100% in [10]; 80% in the test with Lolium perenne (LOLPE) [11]; 90% in the test with Setaria faberi (SETFA) [12].
Take `CCc1cc(C)cc(CC)c1C1=C(O)[C@@H]2[C@@H]3O[C@@H](C[C@H]3c3ccc(F)c(F)c3)[C@@H]2C1=O` (racemic) [Example T178]: the pest or weed control at 250 g/ha was found to be 70% in [1]; 40% in the test on Avena fatua (AVEFA) [2]; 80% in test [3]; 100% in [4]; 80% in the test on Lolium perenne (LOLPE) [5]; 100% in the test on Setaria faberi (SETFA) [6]. In addition, the pest or weed control at 125 g/ha worked out at 100% in [7]; 90% in the test with Avena fatua (AVEFA) [8]; 100% in test [9]; 100% in [10]; 90% in the test with Lolium perenne (LOLPE) [11]; 100% with Setaria faberi (SETFA) [12].
